Laboratory results from EP3231799A1, “4-(AZETIDIN-1-YL)PYRIMIDINE DERIVATIVES WITH ANTI-MITOTIC AND ANTI-PROLIFERATIVE ACTIVITY” (Universität Basel, priority 2016, dated 2017).
Like-named read-outs stand apart in the source and are kept apart here.

Tested on: A2058 melanoma cells
Assay: Mitotic arrest (microtubule binding) in A2058 melanoma cells, high-content microscopy
Assay type: cell-based
Details: Homo sapiens, inhibitors 1 - 0.008 µM for 24 hours, mean value of at least four experiments
Procedure: Microtubule binding of compounds of formula (I) was determined in A2058 melanoma cells measuring mitotic arrest in high-throughput, high-content microscopic approaches. Microtubule networks or their depolymerization were visualized in parallel. Cellular tests are beneficial to address the biological question of tubulin binding, but also indirectly measure the uptake of a compound by cells. A hallmark of microtubule modifying agents (stabilizing or de-stabilizing) is a mitotic arrest cell cycle arrest of dividing cells, which was measured using the following protocol: • Cell preparation: 5000 A2058 cells were seeded in 100 µl complete DMEM into 96-well plates (Cell Carrier, Perkin Elmer) the day before inhibitor treatment. Cells were exposed to inhibitors (ranging from 1 - 0.008 µM) for 24 hours and fixed by addition of half a volume 10% PFA in PBS (30 min., RT). Cells were permeabilized and stained with Hoechst33324 by addition of 1:10 volume of 1%BSA/1% Triton X-100, 10 µM Hoechst33324 in PBS (30 min., RT), followed by a first image acquisition. Subsequently cells were additionally stained with rabbit anti pSer^10 Histone H3 (Cell Signaling Technologies) and rat anti-α-tubulin (Santa Cruz Technologies, overnight, 4 °C, shaking). Cells were washed and incubated with Alexa 488 conjugated goat anti rat IgG, Alexa 647 conjugated goat anti rabbit IgG antibodies (Life Technologies) and 1 µM Hoechst33324 in 1% BSA/0.1% Triton X-100/1x PBS (shaking; RT; dark), followed by 3 wash cycles and a 2nd round of imaging. • Image acquisition: Fluorescent microscopy images were acquired on an Operetta high content analysis system (Perkin Elmer). 35 fields of view/well were acquired as wide field images (20xWD objective). 1st acquisition: Nuclear DNA content and DNA morphology was imaged using the DAPI filter set. 2nd acquisition: Nuclear DNA, phosphorylated Histone H3 and α-tubulin images were acquired using DAPI, Alexa488 and Alexa647 filter sets. • Image analysis: Images were batch analysed using Columbus software (PerkinElmer). Analyses were run including single cell analysis mode. The total number of nuclei was determined in the DAPI channel. Nuclear DNA was classified into "normal" or "condensed" using a linear classifier mode. The percentage of cells with condensed DNA was calculated for each well (% condensed = (# condensed/ # total) *100). The fraction of cells with pSer10 Histone H3 positive nuclei was determined using Hoechst33342 and Alexa647 signals. 1st the nuclei were identified using DNA staining (Hoechst33342; excluding nuclei at image borders). 2nd the identified nuclei were classified positive or negative for pSer10 Histone H3 by two filters using the "filter by properties" mode based on Alexa 647 intensities. Alexa 647 filter properties were i) mean intensities above threshold /nucleus and ii) a maximum intensity above threshold. Calculation: % Alexa 647^positive = (# Alexa 647^positive / # selected nuclei) *100.
The percentage of cells with condensed DNA and the percentage of pSer10 Histone H3 positive nuclei were blotted as function of inhibitor concentration (log scale) using GraphPad Prism. Half maximal effective concentrations (EC50) of inhibitors were determined using GraphPad's "non-linear regression with variable slope" formula (Y=Bottom + (Top-Bottom)/(1+10^((LogEC50-X)*HillSlope))). Table 1: Effect of selected formula (I) compounds on mitotic arrest in A2058 cells. Half-maximal effective concentrations are given as mean value of at least four experiments for the indicated cellular phenotypes.

[1] = percentage of cells with condensed DNA, read-out: Half-maximal effective concentrations (EC50), Condensed DNA
[2] = percentage of pSer10 Histone H3 positive nuclei, read-out: Half-maximal effective concentrations (EC50), pSer10 Histone H3

SMILES | EC50 [1] [nM] | EC50 [2] [nM]
Nc1cc(C(F)(F)F)c(-c2cc(N3CCC3)nc(N3CCOCC3)n2)cn1 [Compound 1, 5-(6-(azetidin-1-yl)-2-morpholinopyrimidin-4-yl)-4-(trifluoromethyl)pyridin-2-amine] | 79 | 80
Nc1cc(C(F)(F)F)c(-c2cc(N3CC(F)C3)nc(N3CCOCC3)n2)cn1 [Compound 2, 5-(6-(3-fluoroazetidin-1-yl)-2-morpholinopyrimidin-4-yl)-4-(trifluoromethyl)pyridin-2-amine] | 71 | 151
CC1CN(c2cc(-c3cnc(N)cc3C(F)(F)F)nc(N3CCOCC3)n2)C1 [Compound 3, 5-(6-(3-methylazetidin-1-yl)-2-morpholinopyrimidin-4-yl)-4-(trifluoromethyl)pyridin-2-amine] | 92 | 
Nc1cc(C(F)(F)F)c(-c2cc(N3CC(F)(F)C3)nc(N3CCOCC3)n2)cn1 [Compound 4, 5-(6-(3,3-difluoroazetidin-1-yl)-2-morpholinopyrimidin-4-yl)-4-(trifluoromethyl)pyridin-2-amine] | 65 | 79
Nc1ncc(-c2cc(N3CC(F)(F)C3)nc(N3CCOCC3)n2)c(C(F)(F)F)n1 [Compound 8, 6-(3,3-difluoroazetidin-1-yl)-2-morpholino-4'-(trifluoromethyl)-[4,5'-bipyrimidin]-2'-amine] | 70 | 73
C[C@@H]1COCCN1c1nc(-c2cnc(N)cc2C(F)(F)F)cc(N2CC(F)(F)C2)n1 [Compound 16, (R)-5-(6-(3,3-difluoroazetidin-1-yl)-2-(3-methylmorpholino)pyrimidin-4-yl)-4-(trifluoromethyl)pyridin-2-amine] | 111 | 115
Nc1cc(C(F)(F)F)c(-c2cc(N3CC(F)(F)C3)nc(N3CCC(O)CC3)n2)cn1 [Compound 40, 1-(4-(6-amino-4-(trifluoromethyl)pyridin-3-yl)-6-(3,3-difluoroazetidin-1-yl)pyrimidin-2-yl)piperidin-4-ol] | 128 | 135
Nc1cc(C(F)(F)F)c(-c2cc(N3CC(F)(F)C3)nc(N3CCC(=O)CC3)n2)cn1 [Compound 76, 1-(4-(6-amino-4-(trifluoromethyl)pyridin-3-yl)-6-(3,3-difluoroazetidin-1-yl)pyrimidin-2-yl)piperidin-4-one] | 129 | 127
